42 compounds from US20220324876A1, “4-SUBSTITUTED PYRANO[3,4,b]PYRAZINE KAPPA AGONISTS FOR TREATING DRUG DEPENDENCY” (The Rockefeller University, priority 2019, published 2022) can be followed below.

In this test the target is T1, human kappa opioid receptors (Homo sapiens, UniProt P41145).
T1 construct: expressed in transfected cells; host or cells: U2OS
Put plainly: [35S]GTPγS binding, membranes from U2OS cells. It counts as biochemical. The note with it: for Emax: read-out: GTPγS (% efficacy).

The EC50 is the concentration giving half of the maximal effect. Read a high EC50 as lower potency in that assay.

Read-outs that look alike come from different tables or passages of the source.

T1 sequence (P41145 whole entry): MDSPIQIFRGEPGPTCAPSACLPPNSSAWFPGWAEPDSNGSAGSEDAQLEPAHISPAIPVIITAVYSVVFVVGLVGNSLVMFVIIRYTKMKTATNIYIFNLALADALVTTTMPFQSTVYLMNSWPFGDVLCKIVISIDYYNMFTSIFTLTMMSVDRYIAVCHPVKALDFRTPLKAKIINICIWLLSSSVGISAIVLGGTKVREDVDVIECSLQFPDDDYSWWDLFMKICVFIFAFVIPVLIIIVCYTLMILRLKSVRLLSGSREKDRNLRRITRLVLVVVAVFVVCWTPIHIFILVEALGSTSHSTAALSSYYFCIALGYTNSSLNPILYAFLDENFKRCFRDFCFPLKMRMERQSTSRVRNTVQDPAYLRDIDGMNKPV

Take `O=C(Cc1ccc(Cl)c(Cl)c1)N1CCN(Cc2ncccn2)[C@@H]2COC[C@H](N3CCCC3)[C@H]21` (racemic) [rac-5A69]: the Emax stood at 114%. The compound further registered an EC50 (GTPγS EC50 (nM), Table D) of 94 nM.

For the compound `O=C(Cc1ccc(Cl)c(Cl)c1)N1CCN(CCCO)[C@@H]2COC[C@H](N3CCCC3)[C@H]21` (racemic) [rac-5A75], the Emax was 89%. Also, the EC50 (GTPγS EC50 (nM), Table D) was determined as 39 nM.

As to `Cn1cc(CN2CCN(C(=O)Cc3ccc(Cl)c(Cl)c3)[C@H]3[C@H]2COC[C@@H]3N2CCCC2)cn1` (racemic) [rac-5A79], a half-maximal effect (EC50) was put at 107 nM and the Emax turned out to be 82%.

As for `O=C(Cc1ccc(Cl)c(Cl)c1)N1CCN(Cc2ccccn2)[C@@H]2COC[C@H](N3CCCC3)[C@H]21` (racemic) [rac-5A80], the Emax was 94%. The EC50 (GTPγS EC50 (nM), Table D) came out at 64 nM.

Regarding `O=C(Cc1ccc(Cl)c(Cl)c1)N1CCN(Cc2cccnc2)[C@@H]2COC[C@H](N3CCCC3)[C@H]21` (racemic) [rac-5A81], the Emax was 95%. The EC50 (GTPγS EC50 (nM), Table D) amounted to 7.4 nM.

As to `O=C(Cc1ccc(Cl)c(Cl)c1)N1CCN(CC2CCOCC2)[C@@H]2COC[C@H](N3CCCC3)[C@H]21` (racemic) [rac-5A84], the EC50 amounted to 136 nM and the Emax came out at 84%.

As for `O=C(Cc1ccc(Cl)c(Cl)c1)N1CCN(CC2CCS(=O)(=O)CC2)[C@@H]2COC[C@H](N3CCCC3)[C@H]21` (racemic) [rac-5A85], the concentration for a half-maximal effect (EC50) is 320 nM and the Emax was 100%.

`N#CCN1CCN(C(=O)Cc2ccc(Cl)c(Cl)c2)[C@H]2[C@H]1COC[C@@H]2N1CCCC1` (racemic) [rac-5A87]: the Emax was found to be 115%. The EC50 (GTPγS EC50 (nM), Table D) amounted to 20 nM.

For `O=C(O)CN1CCN(C(=O)Cc2ccc(Cl)c(Cl)c2)[C@H]2[C@H]1COC[C@@H]2N1CCCC1` (racemic) [rac-5A88], the EC50 amounted to 2490 nM and the Emax amounted to 83%.

As to `CS(=O)(=O)CCN1CCN(C(=O)Cc2ccc(Cl)c(Cl)c2)[C@H]2[C@H]1COC[C@@H]2N1CCCC1` (racemic) [rac-5A94], the Emax was 109%. This compound also yielded an EC50 (GTPγS EC50 (nM), Table D) of 27 nM.

For `O=C(Cc1ccc(Cl)c(Cl)c1)N1CCN(C(=O)c2ccon2)[C@@H]2COC[C@H](N3CCCC3)[C@H]21` (racemic) [rac-5A97], the Emax was found to be 88%. Besides, a half-maximal response (GTPγS EC50 (nM), Table D) (EC50) required 0.8 nM.

In the case of `O=C(Cc1ccc(Cl)c(Cl)c1)N1CCN(Cc2ncon2)[C@@H]2COC[C@H](N3CCCC3)[C@H]21` (racemic) [rac-5A100], the Emax came to 86%. The same compound returned an EC50 (GTPγS EC50 (nM), Table D) of 1.9 nM.

As for `NC(=O)CN1CCN(C(=O)Cc2ccc(Cl)c(Cl)c2)[C@H]2[C@H]1COC[C@@H]2N1CCCC1` (racemic) [rac-5A102], the Emax turned out to be 96%. Under “GTPγS EC50 (nM), Table D”, this compound gave an EC50 of 37 nM.

With `Cn1nccc1CN1CCN(C(=O)Cc2ccc(Cl)c(Cl)c2)[C@H]2[C@H]1COC[C@@H]2N1CCCC1` (racemic) [rac-5A104], the Emax is 74%. Where the note is “GTPγS EC50 (nM), Table D”, this compound showed an EC50 of 9 nM.

As to `Cc1noc(CN2CCN(C(=O)Cc3ccc(Cl)c(Cl)c3)[C@H]3[C@H]2COC[C@@H]3N2CCCC2)n1` (racemic) [rac-5A105], the Emax was determined as 82%. Besides, the EC50 (GTPγS EC50 (nM), Table D) amounted to 19 nM.

For `O=C(Cc1ccc(Cl)c(Cl)c1)N1CCN(Cc2cn[nH]c2)[C@@H]2COC[C@H](N3CCCC3)[C@H]21` (racemic) [rac-5A107], the Emax was 112%. Also, the EC50 (GTPγS EC50 (nM), Table D) was 3.9 nM.

For `O=C(Cc1ccc(Cl)c(Cl)c1)N1CCN(Cc2ccn[nH]2)[C@@H]2COC[C@H](N3CCCC3)[C@H]21` (racemic) [rac-5A108], the Emax was determined as 98%. Moreover, under “GTPγS EC50 (nM), Table D”, the response was half-maximal at 26 nM (EC50).

As for `O=C(Cc1ccc(Cl)c(Cl)c1)N1CCN(Cc2ncco2)[C@@H]2COC[C@H](N3CCCC3)[C@H]21` (racemic) [rac-5A111], the Emax is 146%. This compound also returned an EC50 (GTPγS EC50 (nM), Table D) of 9.8 nM.

For `CCNC(=O)CN1CCN(C(=O)Cc2ccc(Cl)c(Cl)c2)[C@H]2[C@H]1COC[C@@H]2N1CCCC1` (racemic) [rac-5A112], the Emax stood at 75%. Further, where the note is “GTPγS EC50 (nM), Table D”, the EC50 amounted to 85 nM.

In the case of `O=C(CN1CCN(C(=O)Cc2ccc(Cl)c(Cl)c2)[C@H]2[C@H]1COC[C@@H]2N1CCCC1)N1CCCC1` (racemic) [rac-5A113], the Emax was found to be 92%. This compound registered a concentration giving a half-maximal response (EC50) (GTPγS EC50 (nM), Table D) of 70 nM.

On to `Cc1nnc(CN2CCN(C(=O)Cc3ccc(Cl)c(Cl)c3)[C@H]3[C@H]2COC[C@@H]3N2CCCC2)o1` (racemic) [rac-5A118], for which the Emax came out at 91%. For the setting “GTPγS EC50 (nM), Table D”, this compound yielded an EC50 of 40 nM.

As to `O=C(Cc1ccc(Cl)c(Cl)c1)N1CCN(C(=O)c2ccno2)[C@@H]2COC[C@H](N3CCCC3)[C@H]21` (racemic) [rac-5A121], the Emax is 86%. Under “GTPγS EC50 (nM), Table D”, this compound registered an EC50 of 17 nM.

Take `O=C(Cc1ccc(Cl)c(Cl)c1)N1CCN(C(=O)c2cc[nH]n2)[C@@H]2COC[C@H](N3CCCC3)[C@H]21` (racemic) [rac-5A122]: the Emax was 79%. Under “GTPγS EC50 (nM), Table D”, this compound displayed an EC50 of 31 nM.

As to `O=C(Cc1ccc(Cl)c(Cl)c1)N1CCN(C(=O)c2cn[nH]c2)[C@@H]2COC[C@H](N3CCCC3)[C@H]21` (racemic) [rac-5A123], the Emax came out at 62%. This compound also displayed an EC50 (GTPγS EC50 (nM), Table D) of 39 nM.

In the case of `CN(C)S(=O)(=O)N1CCN(C(=O)Cc2ccc(Cl)c(Cl)c2)[C@H]2[C@H]1COC[C@@H]2N1CCCC1` (single isomer, unassigned) [Example 5A56A], the Emax turned out to be 77%. In addition, the EC50 (GTPγS EC50 (nM), Table D) stood at 11 nM.

In the case of `CN(C)S(=O)(=O)N1CCN(C(=O)Cc2ccc(Cl)c(Cl)c2)[C@H]2[C@H](N3CCCC3)COC[C@@H]21` (single isomer, unassigned) [Example 5A56B], the Emax was determined as 122%. This compound also showed an EC50 (GTPγS EC50 (nM), Table D) of 123 nM.

In the case of `O=C(Cc1ccc(Cl)c(Cl)c1)N1CCN(CCO)[C@@H]2COC[C@H](N3CCCC3)[C@H]21` (single isomer, unassigned) [Example 5A74A], the Emax is 95%. In addition, for the setting “GTPγS EC50 (nM), Table D”, the EC50 is 21 nM.

Regarding `O=C(Cc1ccc(Cl)c(Cl)c1)N1CCN(CCO)[C@H]2COC[C@@H](N3CCCC3)[C@@H]21` (single isomer, unassigned) [Example 5A74B], the Emax amounted to 95%. Besides, a half-maximal response (GTPγS EC50 (nM), Table D) (EC50) required 12 nM.

Take `O=C(Cc1ccc(Cl)c(Cl)c1)N1CCN(CC2COC2)[C@@H]2COC[C@H](N3CCCC3)[C@H]21` (single isomer, unassigned) [Example 5A83A]: the Emax worked out at 141%. Besides, the EC50 (GTPγS EC50 (nM), Table D) is 199 nM.

Turning to `O=C(Cc1ccc(Cl)c(Cl)c1)N1CCN(CC2COC2)[C@H]2COC[C@@H](N3CCCC3)[C@@H]21` (single isomer, unassigned) [Example 5A83B], the Emax was found to be 113%. Also, a half-maximal effect (GTPγS EC50 (nM), Table D) (EC50) was put at 24 nM.

For the compound `O=C(Cc1ccc(Cl)c(Cl)c1)N1CCN(C(=O)CO)[C@@H]2COC[C@H](N3CCCC3)[C@H]21` (single isomer, unassigned) [Example 5A95A], the Emax worked out at 87%. This compound also came in with an EC50 (GTPγS EC50 (nM), Table D) of 21 nM.

In the case of `O=C(Cc1ccc(Cl)c(Cl)c1)N1CCN(C(=O)CO)[C@H]2COC[C@@H](N3CCCC3)[C@@H]21` (single isomer, unassigned) [Example 5A95B], the Emax turned out to be 78%. The same compound registered an EC50 (GTPγS EC50 (nM), Table D) of 202 nM.

Consider `O=C(Cc1ccc(Cl)c(Cl)c1)N1CCN(C(=O)C2(O)CCCC2)[C@@H]2COC[C@H](N3CCCC3)[C@H]21` (single isomer, unassigned) [Example 5A125A], for which the Emax was 95%. This compound also gave an EC50 (GTPγS EC50 (nM), Table D) of 58 nM.

Turning to `O=C(Cc1ccc(Cl)c(Cl)c1)N1CCN(C(=O)C2(O)CCCC2)[C@H]2COC[C@@H](N3CCCC3)[C@@H]21` (single isomer, unassigned) [Example 5A125B], the Emax turned out to be 81%. This compound registered an EC50 (GTPγS EC50 (nM), Table D) of 35 nM.

Regarding `O=C(Cc1ccc(Cl)c(Cl)c1)N1CCN(C(=O)C2(O)CC2)[C@@H]2COC[C@H](N3CCCC3)[C@H]21` (single isomer, unassigned) [Example 5A126A], the Emax came to 98%. Moreover, the EC50 (GTPγS EC50 (nM), Table D) came out at 16 nM.

Take `O=C(Cc1ccc(Cl)c(Cl)c1)N1CCN(C(=O)C2(O)CC2)[C@H]2COC[C@@H](N3CCCC3)[C@@H]21` (single isomer, unassigned) [Example 5A126B]: the Emax is 107%. In addition, the EC50 (GTPγS EC50 (nM), Table D) came to 17 nM.

In the case of `O=C(Cc1ccc(Cl)c(Cl)c1)N1CCN(Cc2ccc(F)cc2)[C@@H]2COC[C@H](N3CCCC3)[C@H]21` (single isomer, unassigned) [Example 5A136A], the Emax was 105%. This compound also showed an EC50 (GTPγS EC50 (nM), Table D) of 7 nM.

As for `O=C(Cc1ccc(Cl)c(Cl)c1)N1CCN(Cc2ccc(F)cc2)[C@H]2COC[C@@H](N3CCCC3)[C@@H]21` (single isomer, unassigned) [Example 5A136B], the Emax is 129%. The response (GTPγS EC50 (nM), Table D) was half-maximal at 74 nM (EC50).

In the case of `O=C(Cc1ccc(Cl)c(Cl)c1)N1CCN(CC2CCCO2)[C@H]2COC[C@@H](N3CCCC3)[C@@H]21` (single isomer, unassigned) [Example 5A138D], the Emax stood at 102%. This compound also came in with an EC50 (GTPγS EC50 (nM), Table D) of 100 nM.

Take `O=C(Cc1ccc(Cl)c(Cl)c1)N1CCN(S(=O)(=O)CCO)[C@@H]2COC[C@H](N3CCCC3)[C@H]21` (single isomer, unassigned) [Example 5A140A]: the Emax was 112%. Where the note is “GTPγS EC50 (nM), Table D”, the EC50 is 20 nM.

Take `O=C(Cc1ccc(Cl)c(Cl)c1)N1CCN(S(=O)(=O)CCO)[C@H]2COC[C@@H](N3CCCC3)[C@@H]21` (single isomer, unassigned) [Example 5A140B]: the Emax amounted to 107%. It took 22 nM to reach a half-maximal effect (GTPγS EC50 (nM), Table D) (EC50).

In the case of `COCCN1CCN(C(=O)Cc2ccc(Cl)c(Cl)c2)[C@H]2[C@H]1COC[C@@H]2N1CCCC1` (single isomer, unassigned) [Example 5A141A], the Emax is 96%. Moreover, a half-maximal response (GTPγS EC50 (nM), Table D) (EC50) required 37 nM.
